In this test the target is human VR1 (Homo sapiens, UniProt Q8NER1). The test can be described thus: Human VR1 antagonist assay (Ca2+ imaging). Type of test: cell-based. Particulars: Ca2+ imaging in human VR1 expressing cells; agonist stimulation (capsaicin 300 nM or acid pH 5.8) not given. An excerpt: VR1 antagonistic activity can be determined by the Ca^2+ imaging assay using human VR1 highly expressing cells. The cells that highly express human VR1 receptors are obtainable from several different conventional methods. The one standard method is cloning from human Dorsal Root Ganglion (DRG) or kidney according to the methods such as described in the journal article; Nature, 389, pp816-824, 1997. Alternatively VR1 receptors highly expressing human keratinocytes are also known and published in the journal article (Biochemical and Biophysical Research Communications, 291, pp124-129, 2002). […] Furthermore, the method to up regulate human VR1 gene, which is usually a silent gene or don't produce detectable level of VR1 receptors, is also available to obtain propriety cells. Such genetic modification method was described in detail; Nat. Biotechnol., 19, pp440-445, 2001.
Chain of human VR1 (Q8NER1 whole entry): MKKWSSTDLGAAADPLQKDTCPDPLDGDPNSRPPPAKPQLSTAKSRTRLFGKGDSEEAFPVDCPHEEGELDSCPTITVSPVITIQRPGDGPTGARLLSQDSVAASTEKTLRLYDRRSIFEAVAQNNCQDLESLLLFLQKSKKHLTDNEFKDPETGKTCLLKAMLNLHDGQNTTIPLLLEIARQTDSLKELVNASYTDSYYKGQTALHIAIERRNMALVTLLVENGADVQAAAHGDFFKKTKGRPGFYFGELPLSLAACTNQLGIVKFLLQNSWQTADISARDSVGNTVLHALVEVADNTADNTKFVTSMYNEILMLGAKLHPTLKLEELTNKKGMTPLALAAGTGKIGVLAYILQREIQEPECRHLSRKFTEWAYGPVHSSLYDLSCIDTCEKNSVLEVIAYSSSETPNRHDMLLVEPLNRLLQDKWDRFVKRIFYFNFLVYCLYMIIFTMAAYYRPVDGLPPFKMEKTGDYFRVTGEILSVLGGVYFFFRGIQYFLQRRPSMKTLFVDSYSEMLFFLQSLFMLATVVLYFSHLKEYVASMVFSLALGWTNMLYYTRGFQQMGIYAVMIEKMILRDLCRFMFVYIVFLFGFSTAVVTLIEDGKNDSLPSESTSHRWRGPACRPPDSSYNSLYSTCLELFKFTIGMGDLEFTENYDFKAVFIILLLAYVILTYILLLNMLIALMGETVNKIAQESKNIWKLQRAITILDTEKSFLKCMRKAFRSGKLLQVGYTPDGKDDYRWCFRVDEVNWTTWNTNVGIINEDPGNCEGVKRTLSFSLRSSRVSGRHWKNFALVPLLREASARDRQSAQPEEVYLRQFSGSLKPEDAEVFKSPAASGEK
The cells that express human VR1 receptors were maintained in culture flask at 37° C. in an environment containing 5% CO2 until use in the assay. The intracellular Ca^2+ imaging assay to determine VR1 antagonistic activities were done by following procedures.
The culture medium was removed from the flask and fura-2/AM fluorescent calcium indicator was added to the flask at a concentration of 5 μM in the medium. The flask was placed in CO2 incubator and incubated for 1 hour. Then the cells expressing the human VR1 receptors were detached from the flask follow by washing with phosphate buffer saline, PBS(−) and re-suspended in assay buffer. The 80 μl of aliquot of cell suspension (3.75×10^5 cells/ml) was added to the assay plate and the cells were spun down by centrifuge (950 rpm, 20° C., 3 minutes).
The capsaicin-induced changes in the intracellular calcium concentration were monitored using FDSS 6000 (Hamamatsu Photonics, Japan), a fluorometric imaging system. The cell suspension in Krebs-Ringer HEPES (KRH) buffer (115 mM NaCl, 5.4 mM KCl, 1 mM MgSO4, 1.8 mM CaCl2, 11 mM D-Glucose, 25 mM HEPES, 0.96 mM Na2HPO4, pH 7.3) were pre-incubated with varying concentrations of the test compounds or KRH buffer (buffer control) for 15 minutes at room temperature under the dark condition. Then capsaicin solution, which gives 300 nM in assay mixture, was automatically added to the assay plate by the FDSS 6000.
The Acid-induced changes in the intracellular calcium concentration were monitored using FDSS 6000 (Hamamatsu Photonics, Japan), a fluorometric imaging system. The cell suspension in resting buffer (HBSS supplemented with 10 mM HEPES, pH 7.4) were pre-incubated with varying concentrations of the test compounds or resting buffer (buffer control) for 15 minutes at room temperature under the dark condition. The cells were automatically added the stimulating solution (HBSS supplemented with MES, final assay buffer pH5.8) by the FDSS 6000.
The monitoring of the changes in the fluorescence signals (λex=340 nm/380 nm, λem=510-520 nm) was initiated at 1 minute prior to the addition of capsaicin solution or acidic buffer and continued for 5 minute.
The compounds of the examples were tested in the Human VR1 antagonist assay described above.
As a reminder, the IC50 is the concentration that gives 50% inhibition. High values mean lower potency, low ones higher potency. On to `Oc1cc2c(cc1O)CN(C(=S)NCCc1ccc(Cl)cc1)CCC2` [Capsazepine, reference compound], for which the IC50 fell in the range of 250 to 350 nM.

In the case of `CC(C)(C)c1ccc(OCC(=O)NCc2ccc3[nH]c(=O)[nH]c3c2)cc1` [Example 1, 2-(4-tert-Butylphenoxy)-N-[(2-oxo-2,3-dihydro-1H-benzimidazol-5-yl)methyl]acetamide], the IC50 turned out to be 421 nM.

`CC(C)(C)c1ccc(OCC(=O)NCc2ccc3[nH]c(=O)[nH]c3c2)cc1F` [Example 2, 2-(4-tert-butyl-3-fluorophenoxy)-N-[(2-oxo-2,3-dihydro-1H-benzimidazol-5-yl)methyl]acetamide] registered an IC50 of 111 nM.

Regarding `CC(C)(C)c1c(F)cc(OCC(=O)NCc2ccc3[nH]c(=O)[nH]c3c2)cc1F` [Example 3, 2-(4-tert-butyl-3,5-difluorophenoxy)-N-[(2-oxo-2,3-dihydro-1H-benzimidazol-5-yl)methyl]acetamide], the IC50 amounted to 97 nM.

The compound `CC(C)(C)c1ccc(OCC(=O)NCc2ccc3[nH]c(=O)[nH]c3c2)cc1Cl` [Example 4, 2-(4-tert-Butyl-3-chlorophenoxy)-N-[(2-oxo-2,3-dihydro-1H-benzimidazol-5-yl)methyl]acetamide] yielded an IC50 of 86 nM.

`Cn1c(=O)[nH]c2cc(CNC(=O)COc3ccc(C(C)(C)C)cc3)ccc21` [Example 5, 2-(4-tert-butylphenoxy)-N-[(1-methyl-2-oxo-2,3-dihydro-1H-benzimidazol-5-yl)methyl]acetamide]: the IC50 was found to be 462 nM.

In turn, `Cn1c(=O)[nH]c2cc(CNC(=O)COc3ccc(C(C)(C)C)c(Cl)c3)ccc21` [Example 7, 2-(4-tert-butyl-3-chlorophenoxy)-N-[(1-methyl-2-oxo-2,3-dihydro-1H-benzimidazol-5-yl)methyl]acetamide] gave an IC50 of 175 nM.

`Cn1c(=O)[nH]c2ccc(CNC(=O)COc3ccc(C(C)(C)C)c(Cl)c3)cc21` [Example 8, 2-(3-chloro-4-tert-butylphenoxy)-N-[(3-methyl-2-oxo-2,3-dihydro-1H-benzimidazol-5-yl)methyl]acetamide] had an IC50 of 481 nM.

In turn, `CC(C)(C)c1ccc(OCC(=O)NCc2ccc3c(c2)CC(=O)N3)cc1Cl` [Example 9, 2-(3-chloro-4-tert-butylphenoxy)-N-[(2-oxo-2,3-dihydro-1H-indol-5-yl)methyl]acetamide] displayed an IC50 of 478 nM.

`CC(C)(C)c1ccc(OCC(=O)NCc2ccc3[nH]c(=O)oc3c2)cc1Cl` [Example 10, 2-(3-chloro-4-tert-butylphenoxy)-N-[(2-oxo-2,3-dihydro-1,3-benzoxazol-6-yl)methyl]acetamide] showed an IC50 of 413 nM.

Regarding `CC(C)(C)c1ccc(OCC(=O)NCc2ccc3[nH]cnc3c2)cc1` [Example 11, 2-(4-tert-butylphenoxy)-N-(1H-benzindazol-5-ylmethyl)acetamide], the IC50 was 837 nM.

For the compound `CC(C)(C)c1ccc(OCC(=O)NCc2ccc3[nH]cnc3c2)cc1` [Example 12, N-(1H-benzimidazol-5-ylmethyl)-2-(4-tert-butylphenoxy)acetamide], the IC50 amounted to 286 nM.

In the case of `CC(NC(=O)COc1cc(F)c(C(C)(C)C)c(F)c1)c1ccc2[nH]c(=O)[nH]c2c1` (stereo not drawn) [Example 13, 2-(4-tert-Butyl-3,5-difluorophenoxy)-N-[1-(2-oxo-2,3-dihydro-1H-benzimidazol-5-yl)ethyl]acetamide], the IC50 stood at 50 nM.

On to `C[C@@H](NC(=O)COc1cc(F)c(C(C)(C)C)c(F)c1)c1ccc2nn[nH]c2c1` [Example 14, N-[(1R)-1-(1H-1,2,3-Benzotriazol-6-yl)ethyl]-2-(4-tert-butyl-3,5-difluorophenoxy)acetamide], for which the IC50 is 31 nM.

As for `CC(NC(=O)COc1cc(F)c(C(C)(C)C)c(F)c1)c1ccc2ncsc2c1` (stereo not drawn) [Example 15, N-[1-(1,3-benzothiazol-6-yl)ethyl]-2-(4-tert-butyl-3,5-difluorophenoxy)acetamide], the IC50 was 71 nM.

The record behind these values is patent US7514457B2, “Substituted aryloxymethyl bicyclicmethyl acetamide compounds” (Pfizer Inc., priority 2005, dated 2009).
